“Also recorded” adds a separate entry of the source. Where two headings read alike, the source gives them in different places.
Assays:
[1] = test system: CYP3A4; parameters: method as in PMID 21170960; conditions: cited from earlier work
[2] = Organ distribution of regorafenib in rats with or without RT; type: in vivo, Sprague-Dawley rats; conditions: for concentration at 4 h: Sprague-Dawley, rat, 16 mg/kg, 4 h after oral administration
Method: According to the formula used to translate doses from animal to human, human equivalent dose (HED, mg/kg) = animal dose (mg/kg) × animal km/human km, we calculated the daily dose of regorafenib for rats to be 16 (mg/kg/day). The rats were randomly divided into ten groups with six rats in each group. The concurrent groups treated with regorafenib 1 h after RT, in the same day, to mimic regorafenib concurrent with RT in the daily practice. The sequential groups treated with regorafenib following RT (not in the same day), to mimic RT followed by regorafenib in the daily practice. The one fraction study group included (A) a sham group, regorafenib with RT0 Gy (regorafenib × 1 d); concurrent groups treated with regorafenib 1 h after (B) RT2 Gy with 1 fraction (RT2 Gy × 1 f’x) and (D) RT9 Gy with 1 fraction (RT9 Gy × 1 f’x); and sequential groups treated with regorafenib 24 h after (C) RT2 Gy × 1 f’x and (E) RT9 Gy × 1 f’x. Continued treatment mimicking clinical practice was applied to (A) a sham group, regorafenib (p.o. (per os), q.d. × 3 d) with RT0 Gy (regorafenib × 3 d); concurrent groups treated with regorafenib (p.o., q.d. × 3 d) 1 h after (B) RT2 Gy with 3 fractions (RT2 Gy × 3 f’x) and (D) RT9 Gy with 3 fractions (RT9Gy × 3 f’x); and sequential groups treated with regorafenib 24 h (p.o., q.d. × 3 d) after (C) RT2 Gy × 3 f’x and (E) RT9 Gy × 3 f’x. (Figure 1A,B).
Organs, including the brain, liver, heart, spleen, lung and kidney, were collected, weighed and stored at −20 °C, until analysis.
The organ samples were homogenized in 50% aqueous acetonitrile (sample weight: volume = 1:5) and centrifuged at 13,000× g, for 10 min, at 4 °C. The supernatant was stored at −20 °C, until analysis. Additionally, 150 μL of IS solution (diethylstilbestrol) was combined with each organ sample (50 μL) for protein precipitation. Finally, the filtrate (20 μL) was analyzed by HPLC.

CNC(=O)c1cc(Oc2ccc(NC(=O)Nc3ccc(Cl)c(C(F)(F)F)c3)c(F)c2)ccn1 [regorafenib, Regorafenib]
Metabolic pathway (in words) [1]: metabolized via CYP3A4
concentration at 4 h ([2]; brain, oral, RT2 Gy × 1 f'x followed by regorafenib 16 mg/kg × 1 d (sequential), read-out: Concentration in brain): 80 ± 60 ng/g
concentration at 4 h ([2]; brain, oral, RT2 Gy × 3 f'x followed by regorafenib 16 mg/kg × 3 d (sequential), read-out: Concentration in brain): 30 ± 50 ng/g
concentration at 4 h ([2]; brain, oral, RT2 Gy × 3 f'x with regorafenib 16 mg/kg × 3 d (concurrent), read-out: Concentration in brain): 20 ± 50 ng/g
concentration at 4 h ([2]; brain, oral, RT9 Gy × 1 f'x with regorafenib 16 mg/kg × 1 d (concurrent), read-out: Concentration in brain): 10 ± 20 ng/g
concentration at 4 h ([2]; heart, oral, RT2 Gy × 1 f'x followed by regorafenib 16 mg/kg × 1 d (sequential), read-out: Concentration in heart): 780 ± 270 ng/g
concentration at 4 h ([2]; heart, oral, RT2 Gy × 3 f'x followed by regorafenib 16 mg/kg × 3 d (sequential), read-out: Concentration in heart): 290 ± 180 ng/g
concentration at 4 h ([2]; heart, oral, RT2 Gy × 3 f'x with regorafenib 16 mg/kg × 3 d (concurrent), read-out: Concentration in heart): 30 ± 30 ng/g
concentration at 4 h ([2]; heart, oral, RT9 Gy × 1 f'x with regorafenib 16 mg/kg × 1 d (concurrent), read-out: Concentration in heart): 360 ± 330 ng/g
concentration at 4 h ([2]; kidney, oral, RT2 Gy × 1 f'x followed by regorafenib 16 mg/kg × 1 d (sequential), read-out: Concentration in kidneys): 590 ± 270 ng/g
concentration at 4 h ([2]; kidney, oral, RT2 Gy × 3 f'x followed by regorafenib 16 mg/kg × 3 d (sequential), read-out: Concentration in kidneys): 730 ± 440 ng/g
concentration at 4 h ([2]; kidney, oral, RT2 Gy × 3 f'x with regorafenib 16 mg/kg × 3 d (concurrent), read-out: Concentration in kidneys): 130 ± 60 ng/g
concentration at 4 h ([2]; kidney, oral, RT9 Gy × 1 f'x with regorafenib 16 mg/kg × 1 d (concurrent), read-out: Concentration in kidneys): 180 ± 50 ng/g
concentration at 4 h ([2]; liver, oral, RT2 Gy × 1 f'x followed by regorafenib 16 mg/kg × 1 d (sequential), read-out: Concentration in liver): 2280 ± 750 ng/g
concentration at 4 h ([2]; liver, oral, RT2 Gy × 3 f'x followed by regorafenib 16 mg/kg × 3 d (sequential), read-out: Concentration in liver): 1680 ± 650 ng/g
concentration at 4 h ([2]; liver, oral, RT2 Gy × 3 f'x with regorafenib 16 mg/kg × 3 d (concurrent), read-out: Concentration in liver): 550 ± 270 ng/g
concentration at 4 h ([2]; liver, oral, RT9 Gy × 1 f'x with regorafenib 16 mg/kg × 1 d (concurrent), read-out: Concentration in liver): 1010 ± 580 ng/g
concentration at 4 h ([2]; lung, oral, RT2 Gy × 1 f'x followed by regorafenib 16 mg/kg × 1 d (sequential), read-out: Concentration in lung): 1270 ± 640 ng/g
concentration at 4 h ([2]; lung, oral, RT2 Gy × 3 f'x followed by regorafenib 16 mg/kg × 3 d (sequential), read-out: Concentration in lung): 990 ± 430 ng/g
concentration at 4 h ([2]; lung, oral, RT2 Gy × 3 f'x with regorafenib 16 mg/kg × 3 d (concurrent), read-out: Concentration in lung): 210 ± 90 ng/g
concentration at 4 h ([2]; lung, oral, RT9 Gy × 1 f'x with regorafenib 16 mg/kg × 1 d (concurrent), read-out: Concentration in lung): 170 ± 140 ng/g
concentration at 4 h ([2]; spleen, oral, RT2 Gy × 1 f'x followed by regorafenib 16 mg/kg × 1 d (sequential), read-out: Concentration in spleen): 680 ± 300 ng/g
concentration at 4 h ([2]; spleen, oral, RT2 Gy × 3 f'x followed by regorafenib 16 mg/kg × 3 d (sequential), read-out: Concentration in spleen): 410 ± 240 ng/g
concentration at 4 h ([2]; spleen, oral, RT2 Gy × 3 f'x with regorafenib 16 mg/kg × 3 d (concurrent), read-out: Concentration in spleen): 80 ± 60 ng/g
concentration at 4 h ([2]; spleen, oral, RT9 Gy × 1 f'x with regorafenib 16 mg/kg × 1 d (concurrent), read-out: Concentration in spleen): 140 ± 70 ng/g
Biodistribution in heart, liver, lung, spleen and kidneys (in words) ([2]; concurrent RT2 Gy × 3 f'x and RT9 Gy × 3 f'x vs control (regorafenib × 3 d)): clearly decreased the biodistribution of regorafenib; also recorded: obviously decreased the biodistribution of regorafenib
concentration at 4 h ([2]; male, brain, oral, RT2 Gy × 1 f'x with regorafenib 16 mg/kg × 1 d (concurrent), read-out: Concentration in brain): 20 ± 30 ng/g
concentration at 4 h ([2]; male, brain, oral, RT9 Gy × 1 f'x followed by regorafenib 16 mg/kg × 1 d (sequential), read-out: Concentration in brain): 60 ± 50 ng/g
concentration at 4 h ([2]; male, brain, oral, RT9 Gy × 3 f'x followed by regorafenib 16 mg/kg × 3 d (sequential), read-out: Concentration in brain): 40 ± 80 ng/g
concentration at 4 h ([2]; male, brain, oral, RT9 Gy × 3 f'x with regorafenib 16 mg/kg × 3 d (concurrent), read-out: Concentration in brain): 10 ± 20 ng/g
concentration at 4 h ([2]; male, brain, po, 16 mg/kg p.o. × 1 d, no RT, read-out: Concentration in brain): 30 ± 40 ng/g
concentration at 4 h ([2]; male, brain, po, 16 mg/kg p.o. × 3 d, no RT, read-out: Concentration in brain): 10 ± 20 ng/g
concentration at 4 h ([2]; male, heart, oral, RT2 Gy × 1 f'x with regorafenib 16 mg/kg × 1 d (concurrent), read-out: Concentration in heart): 290 ± 170 ng/g
concentration at 4 h ([2]; male, heart, oral, RT9 Gy × 1 f'x followed by regorafenib 16 mg/kg × 1 d (sequential), read-out: Concentration in heart): 870 ± 140 ng/g
concentration at 4 h ([2]; male, heart, oral, RT9 Gy × 3 f'x followed by regorafenib 16 mg/kg × 3 d (sequential), read-out: Concentration in heart): 170 ± 270 ng/g
concentration at 4 h ([2]; male, heart, oral, RT9 Gy × 3 f'x with regorafenib 16 mg/kg × 3 d (concurrent), read-out: Concentration in heart): 90 ± 70 ng/g
concentration at 4 h ([2]; male, heart, po, 16 mg/kg p.o. × 1 d, no RT, read-out: Concentration in heart): 450 ± 310 ng/g
concentration at 4 h ([2]; male, heart, po, 16 mg/kg p.o. × 3 d, no RT, read-out: Concentration in heart): 250 ± 100 ng/g
concentration at 4 h ([2]; male, kidney, oral, RT2 Gy × 1 f'x with regorafenib 16 mg/kg × 1 d (concurrent), read-out: Concentration in kidneys): 210 ± 110 ng/g
concentration at 4 h ([2]; male, kidney, oral, RT9 Gy × 1 f'x followed by regorafenib 16 mg/kg × 1 d (sequential), read-out: Concentration in kidneys): 590 ± 340 ng/g
concentration at 4 h ([2]; male, kidney, oral, RT9 Gy × 3 f'x followed by regorafenib 16 mg/kg × 3 d (sequential), read-out: Concentration in kidneys): 400 ± 430 ng/g
concentration at 4 h ([2]; male, kidney, oral, RT9 Gy × 3 f'x with regorafenib 16 mg/kg × 3 d (concurrent), read-out: Concentration in kidneys): 170 ± 120 ng/g
concentration at 4 h ([2]; male, kidney, po, 16 mg/kg p.o. × 1 d, no RT, read-out: Concentration in kidneys): 340 ± 190 ng/g
concentration at 4 h ([2]; male, kidney, po, 16 mg/kg p.o. × 3 d, no RT, read-out: Concentration in kidneys): 650 ± 250 ng/g
concentration at 4 h ([2]; male, liver, oral, RT2 Gy × 1 f'x with regorafenib 16 mg/kg × 1 d (concurrent), read-out: Concentration in liver): 1100 ± 510 ng/g
